Source: patent US20030133931A1 (priority 2001, published 2003)

Legend:
[1] = biological target: guinea pig histamine H4 receptor (Cavia porcellus, UniProt Q91ZY3); test: biochemical
[2] = biological target: T1, human histamine H4 receptor (Homo sapiens, UniProt Q9H3N8); test: biochemical
[3] = biological target: rat histamine H4 receptor (Rattus norvegicus, UniProt Q91ZY1); test: biochemical
[4] = tested on: Zymosan Induced Peritonitis in Mice; conditions: for effect on PMN influx: H4 ANTAG #1 10 mg/kg, Imetit 5 mg/kg, thioperamide 5 mg/kg, 4 h after zymosan; for PMN (10^6 per mouse) Mean: group mean, s.c. at -15 min and +2 h (H4 ANTAG #1 10 mg/kg; Imetit, Thioperamide 5 mg/kg), lavage 4 h after zymosan
[5] = tested on: Croton Oil Induced Topical Inflammation in Mice; conditions: 6 h after croton oil
[6] = biological target: T1, human histamine H4 receptor; conditions: histamine 100 pM-100 uM; forskolin 3 uM; SK-N-MC cells
[7] = biological target: T1, human histamine H4 receptor; conditions: SK-N-MC or COS7 cells expressing human histamine H4 receptor

Sequence of rat histamine H4 receptor (Q91ZY1 whole entry): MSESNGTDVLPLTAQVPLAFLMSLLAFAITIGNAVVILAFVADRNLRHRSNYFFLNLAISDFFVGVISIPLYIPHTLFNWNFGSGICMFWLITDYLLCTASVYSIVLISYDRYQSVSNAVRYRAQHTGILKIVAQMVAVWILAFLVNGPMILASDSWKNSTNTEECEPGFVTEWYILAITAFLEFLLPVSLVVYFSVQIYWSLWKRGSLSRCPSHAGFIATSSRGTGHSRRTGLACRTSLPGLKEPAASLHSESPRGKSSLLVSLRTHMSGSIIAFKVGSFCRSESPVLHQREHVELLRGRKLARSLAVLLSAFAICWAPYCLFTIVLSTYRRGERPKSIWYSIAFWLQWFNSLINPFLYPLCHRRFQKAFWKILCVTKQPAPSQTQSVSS
T1 sequence (Q9H3N8 whole entry): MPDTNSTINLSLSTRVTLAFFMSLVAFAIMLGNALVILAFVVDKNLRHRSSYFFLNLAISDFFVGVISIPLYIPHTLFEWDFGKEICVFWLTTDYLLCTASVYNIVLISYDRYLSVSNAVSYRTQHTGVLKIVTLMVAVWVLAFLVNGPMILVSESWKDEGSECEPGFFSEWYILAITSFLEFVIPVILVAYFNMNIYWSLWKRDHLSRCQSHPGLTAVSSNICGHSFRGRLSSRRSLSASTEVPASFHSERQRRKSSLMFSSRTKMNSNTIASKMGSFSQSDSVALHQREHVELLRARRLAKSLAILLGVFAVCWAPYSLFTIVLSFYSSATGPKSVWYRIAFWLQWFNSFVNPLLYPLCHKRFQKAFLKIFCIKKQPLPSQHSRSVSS
Sequence of guinea pig histamine H4 receptor (Q91ZY3 1-389): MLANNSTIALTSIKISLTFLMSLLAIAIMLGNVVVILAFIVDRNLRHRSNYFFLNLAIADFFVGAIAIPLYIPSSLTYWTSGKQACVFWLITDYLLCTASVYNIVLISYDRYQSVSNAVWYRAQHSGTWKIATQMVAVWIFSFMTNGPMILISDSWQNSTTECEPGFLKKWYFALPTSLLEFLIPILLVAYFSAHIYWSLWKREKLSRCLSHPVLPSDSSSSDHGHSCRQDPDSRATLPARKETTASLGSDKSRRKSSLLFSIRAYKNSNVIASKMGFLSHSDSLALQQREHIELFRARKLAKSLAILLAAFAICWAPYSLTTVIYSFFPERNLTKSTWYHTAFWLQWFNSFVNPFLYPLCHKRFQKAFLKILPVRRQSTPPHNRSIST

| Molecule | Ki [1] [nM] | Ki [2] [nM] | Ki [3] [nM] | further results |
| --- | --- | --- | --- | --- |
| CNCCc1c[nH]cn1 [N-methylhistamine] | 220 | 48 | 552 |  |
| S=C(NC1CCCCC1)N1CCC(c2cnc[nH]2)CC1 [Thioperamide] | 83 |  |  | effect on PMN influx [4]: significant inhibitory effect; PMN (10^6 per mouse) Mean [4]: 9.3 10^6 per mouse; % inhib (PMN) ([4]; vs PBS + zymosan, 4 h, doses as in Table 1, s.c.): (−46%) |
| COc1ccc2c(c1)c(CC(=O)O)c(C)n2C(=O)c1ccc(Cl)cc1 [Indomethacin] |  |  |  | Difference in ear thickness (×0.01 mm) Mean ([5]; group mean, s.c. ×3 (H4 ANTAG #1 10 mg/kg; Indomethacin 30 mg/kg)): 10.0 ×0.01 mm; % inhib (ear swelling) ([5]; vs vehicle, s.c. ×3): (−40%) |
| NC(=NCc1ccc(Cl)cc1)SCCCc1cnc[nH]1 [Clobenpropit] | 3.6 | 4.9 | 63 |  |
| N=C(N)SCCc1cnc[nH]1 [Imetit] | 30 | 1.3 | 6.8 | effect on PMN influx [4]: inactive; PMN (10^6 per mouse) Mean [4]: 17.3 10^6 per mouse |
| NCCc1c[nH]cn1 [Histamine] | 27 |  |  | activation of recombinant human histamine H4 receptor (decrease of forskolin-raised cAMP), words [6]: specifically activated |
| ^3H-histamine |  |  |  | ^3H-histamine binding [7]: high affinity |
